Data reported in patent US20170166558A1, “O-GLCNAC TRANSFERASE (OGT) INHIBITORS AND USES THEREOF” (President and Fellows of Harvard College, priority 2014, published 2017).

What follows are compounds tested against T1, sOGT (Homo sapiens, UniProt O15294) (assay: Fluorescence polarization displacement screen with fluorescein-linked UDP-GlcNAc analog). Details: 100 μM treatment.
T1 sequence (O15294 1-665 isoform O15294-4): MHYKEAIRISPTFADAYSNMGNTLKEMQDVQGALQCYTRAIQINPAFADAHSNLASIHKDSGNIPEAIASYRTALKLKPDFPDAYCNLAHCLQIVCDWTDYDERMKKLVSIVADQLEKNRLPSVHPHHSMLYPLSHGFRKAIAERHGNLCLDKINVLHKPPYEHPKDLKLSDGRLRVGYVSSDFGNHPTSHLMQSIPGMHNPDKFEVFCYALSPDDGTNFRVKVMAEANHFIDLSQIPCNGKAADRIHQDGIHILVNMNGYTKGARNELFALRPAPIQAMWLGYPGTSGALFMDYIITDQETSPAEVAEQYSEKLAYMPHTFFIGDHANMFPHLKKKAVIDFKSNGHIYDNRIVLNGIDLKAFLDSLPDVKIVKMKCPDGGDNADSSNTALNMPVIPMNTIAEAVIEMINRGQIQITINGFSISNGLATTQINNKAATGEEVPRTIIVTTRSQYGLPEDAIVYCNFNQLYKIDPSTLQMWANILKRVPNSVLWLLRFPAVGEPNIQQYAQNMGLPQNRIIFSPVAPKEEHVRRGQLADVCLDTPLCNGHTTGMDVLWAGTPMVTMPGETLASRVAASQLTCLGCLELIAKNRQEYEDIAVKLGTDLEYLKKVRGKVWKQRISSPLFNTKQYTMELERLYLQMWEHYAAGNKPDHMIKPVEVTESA
Type: binding

SMILES	% OGT activity (100 μM treatment)
O=C([C@@H](NS(=O)(=O)c1ccc2[nH]c(=O)[nH]c(=O)c2c1)c1ccccc1)N(Cc1ccco1)Cc1cccs1	No inhibition
O=C(C1c2ccccc2CN1S(=O)(=O)c1ccc2[nH]c(=O)ccc2c1)N(Cc1ccco1)Cc1cccs1 (stereo not shown) [drawing 114]	43%
O=C(C(NS(=O)(=O)c1ccc2[nH]c(=O)ccc2c1)c1ccccc1C(F)(F)F)N(Cc1ccco1)Cc1cccs1 (stereo not shown) [drawing 119]	0.7%
O=C(C(NS(=O)(=O)c1ccc2[nH]c(=O)ccc2c1)c1ccc(C(F)(F)F)cc1)N(Cc1ccco1)Cc1cccs1 (stereo not shown) [drawing 126]	54%
O=C(C(NS(=O)(=O)c1ccc2[nH]c(=O)ccc2c1)c1ccccc1F)N(Cc1ccco1)Cc1cccs1 (stereo not shown) [drawing 129]	0.5%
Cc1ccccc1C(NS(=O)(=O)c1ccc2[nH]c(=O)ccc2c1)C(=O)N(Cc1ccco1)Cc1cccs1 (stereo not shown) [drawing 132]	4.5%
Cc1ccc(C(NS(=O)(=O)c2ccc3[nH]c(=O)ccc3c2)C(=O)N(Cc2ccco2)Cc2cccs2)cc1 (stereo not shown) [drawing 134]	66%
Cc1ccccc1C(NS(=O)(=O)c1ccc2[nH]c(=O)ccc2c1)C(=O)N(Cc1ccco1)Cc1cccs1 (stereo not shown) [drawing 136]	10%

Now from value to compound:

% OGT activity (100 μM treatment)	SMILES
No inhibition	O=C(NCc1cccs1)[C@H](NS(=O)(=O)c1ccc2[nH]c(=O)ccc2c1)c1ccccc1
65%	O=C(C1c2ccccc2CCN1S(=O)(=O)c1ccc2[nH]c(=O)ccc2c1)N(Cc1ccco1)Cc1cccs1 (stereo not shown) [drawing 115]
11%	O=C(C(NS(=O)(=O)c1ccc2[nH]c(=O)ccc2c1)c1ccccc1C(F)(F)F)N(Cc1ccco1)Cc1cccs1 (stereo not shown) [drawing 121]
33%	O=C(C(NS(=O)(=O)c1ccc2[nH]c(=O)ccc2c1)c1ccc(C(F)(F)F)cc1)N(Cc1ccco1)Cc1cccs1 (stereo not shown) [drawing 122]
38%	O=C(C(NS(=O)(=O)c1ccc2[nH]c(=O)ccc2c1)c1ccccc1C(F)(F)F)N(Cc1ccco1)Cc1cccs1 (stereo not shown) [drawing 125]
29%	O=C(C(NS(=O)(=O)c1ccc2[nH]c(=O)ccc2c1)c1cccc(C(F)(F)F)c1)N(Cc1ccco1)Cc1cccs1 (stereo not shown) [drawing 127]
7.4%	O=C(C(NS(=O)(=O)c1ccc2[nH]c(=O)ccc2c1)c1cccc(C(F)(F)F)c1)N(Cc1ccco1)Cc1cccs1 (stereo not shown) [drawing 128]
11%	Cc1ccc(C(NS(=O)(=O)c2ccc3[nH]c(=O)ccc3c2)C(=O)N(Cc2ccco2)Cc2cccs2)cc1 (stereo not shown) [drawing 130]
No inhibition	Cc1cccc(C(NS(=O)(=O)c2ccc3[nH]c(=O)ccc3c2)C(=O)N(Cc2ccco2)Cc2cccs2)c1 (stereo not shown) [drawing 131]
24%	O=C(C(NS(=O)(=O)c1ccc2[nH]c(=O)ccc2c1)c1ccccc1F)N(Cc1ccco1)Cc1cccs1 (stereo not shown) [drawing 133]
No inhibition	Cc1cccc(C(NS(=O)(=O)c2ccc3[nH]c(=O)ccc3c2)C(=O)N(Cc2ccco2)Cc2cccs2)c1 (stereo not shown) [drawing 135]

Same assay, conditions: 100 μM treatment; read-out: % OGT activity (100 μM treatment)

SMILES	remaining activity at 100 µM
O=C([C@H](NS(=O)(=O)c1ccc2[nH]c(=O)[nH]c(=O)c2c1)c1ccccc1)N(Cc1ccco1)Cc1cccs1	68%
O=C([C@H](NS(=O)(=O)c1ccc2[nH]c(=O)ccc2c1)c1ccc(F)cc1)N(Cc1ccco1)Cc1cccs1	5%
O=C([C@H](NS(=O)(=O)c1ccc2[nH]c(=O)ccc2c1)c1ccc(Cl)cc1)N(Cc1ccco1)Cc1cccs1	22%
COc1ccc([C@@H](NS(=O)(=O)c2ccc3[nH]c(=O)ccc3c2)C(=O)N(Cc2ccco2)Cc2cccs2)cc1	2.9%
CN1CCN(C(=O)[C@H](NS(=O)(=O)c2ccc3[nH]c(=O)ccc3c2)c2ccccc2)CC1	47%
CN(Cc1cccs1)C(=O)[C@H](NS(=O)(=O)c1ccc2[nH]c(=O)ccc2c1)c1ccccc1	2.5%
O=C([C@H](NS(=O)(=O)c1ccc2[nH]c(=O)ccc2c1)c1ccccc1)N1CCOCC1	47%
O=C(NCc1ccco1)[C@H](NS(=O)(=O)c1ccc2[nH]c(=O)ccc2c1)c1ccccc1	64%
CN(Cc1ccco1)C(=O)[C@H](NS(=O)(=O)c1ccc2[nH]c(=O)ccc2c1)c1ccccc1	5%
O=C([C@H](NS(=O)(=O)c1ccc2[nH]c(=O)ccc2c1)c1ccccc1)N1CCCCC1	22%
CCCC[C@@H](NS(=O)(=O)c1ccc2[nH]c(=O)ccc2c1)C(=O)N(Cc1ccco1)Cc1cccs1	8%
O=C([C@@H](Cc1ccccc1)NS(=O)(=O)c1ccc2[nH]c(=O)ccc2c1)N(Cc1ccco1)Cc1cccs1 [drawing 149]	53%

Other lines, results leading:

remaining activity at 100 µM	SMILES
0.7%	O=C([C@H](NS(=O)(=O)c1ccc2[nH]c(=O)ccc2c1)c1ccc(O)cc1)N(Cc1ccco1)Cc1cccs1
22%	O=C([C@H](NS(=O)(=O)c1ccc2[nH]c(=O)ccc2c1)C1CCCCC1)N(Cc1ccco1)Cc1cccs1
4%	O=C([C@H](NS(=O)(=O)c1ccc2[nH]c(=O)ccc2c1)c1ccccc1Cl)N(Cc1ccco1)Cc1cccs1
7%	O=C([C@H](NS(=O)(=O)c1ccc2[nH]c(=O)ccc2c1)c1cccs1)N(Cc1ccco1)Cc1cccs1
2.6%	O=C([C@H](NS(=O)(=O)c1ccc2[nH]c(=O)ccc2c1)c1cccc(F)c1)N(Cc1ccco1)Cc1cccs1
0.9%	O=C([C@@H](NS(=O)(=O)c1ccc2[nH]c(=O)ccc2c1)c1ccc(F)cc1)N(Cc1ccco1)Cc1cccs1
26%	CCNC(=O)[C@H](NS(=O)(=O)c1ccc2[nH]c(=O)ccc2c1)c1ccccc1
2.5%	COc1cccc([C@@H](NS(=O)(=O)c2ccc3[nH]c(=O)ccc3c2)C(=O)N(Cc2ccco2)Cc2cccs2)c1
56%	O=C(C1c2ccccc2CN1S(=O)(=O)c1ccc2[nH]c(=O)ccc2c1)N(Cc1ccco1)Cc1cccs1 (stereo not shown) [drawing 109]
47%	O=C(C1c2ccccc2CCN1S(=O)(=O)c1ccc2[nH]c(=O)ccc2c1)N(Cc1ccco1)Cc1cccs1 (stereo not shown) [drawing 110]

Same assay, conditions: read-out: % OGT activity (100 μM treatment)

remaining activity at 100 µM	SMILES
7%	O=C([C@@H](NS(=O)(=O)c1ccc2[nH]c(=O)ccc2c1)c1ccccc1)N(Cc1ccco1)Cc1cccs1
1.73%	O=C([C@H](NS(=O)(=O)c1ccc2[nH]c(=O)ccc2c1)c1ccccc1)N(Cc1ccco1)Cc1cccs1
